What all share (test): inhibition of tumour cell growth, NCI panel, 48 h
Assay [1] concerns 786-0 renal.
For assay [2], the system named is DU-145 prostate.
Assay [3] has as its system HOP-92 NSCLC.
For assay [4], the system named is MDA-N.
For assay [5], the system named is OVCAR-3 ovarian.
Assay [6] has as its system OVCAR-5 ovarian.
In assay [7] the test system is OVCAR-8 ovarian.
For assay [8], the system named is SK-MEL-2 melanoma.
Assay [9] concerns SR leukemia.
Assay [10] deals with SW-620 colon.
For assay [11], the system named is T-47D breast.

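Grown in 96-well plates, cells were treated for 48 hours with each compound at five concentrations. Insufficient inhibition: endpoint recorded as highest concentration tested. TGI: total growth inhibition.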 Some results are limits rather than exact numbers.

Take `Oc1ccc(-c2nc3cc(C(F)(F)F)ccc3n2CC2CCCN3CCCCC23)cc1` (stereo not given): the TGI in [1] stood at 30.7 µM; in assay [2], 36.1 µM; in assay [3] it was 28.5 µM; in assay [4] it was 29.7 µM; in assay [5], 27 µM; in assay [6], 67 µM. The TGI in assay [7] was 29.5 µM; in assay [8], 27.9 µM; in assay [9], 35.8 µM; in assay [10] it was 28.4 µM; in assay [11], 47.6 µM.

With `CC(C)(C)NC(NC(C)(C)C)=C(C(Cl)=C(Cl)Cl)[N+](=O)[O-]`, the TGI in [1], in assay [2], in assay [4], in assay [5], in assay [6] and in assay [7] was more than 100 µM each time. The TGI in [9], in [10] and in [11] was more than 100 µM throughout.

As for `C/C=C(/C)C(=O)O[C@@H]1c2c(C)coc2C[C@H]2CC[C@H](O)[C@H](C)[C@]21C`, the TGI in assay [2] is more than 100 µM; in [3], more than 100 µM; in assay [4], more than 100 µM; in [5], 70.6 µM; in [6] it was more than 100 µM; in assay [7], more than 100 µM. Moreover, the TGI in [9], in assay [10] and in assay [11] was more than 100 µM each time.

On to `NC1CC2C3CCC2C1C3=O` (stereo not given), for which the TGI in assay [1], in assay [2], in [3], in assay [4], in assay [5] and in assay [6] was more than 100 µM throughout. Besides, the TGI in [7], in [8], in [9], in assay [10] and in [11] was more than 100 µM in each case.

For `O=[N+]([O-])CC(SCc1ccccc1)c1ccc2c(c1)OCO2` (stereo not given), the TGI in assay [1] was 3.42 µM; in [2] it was 30 µM; in assay [3], 21 µM; in assay [4], 9.63 µM; in assay [5], 18.3 µM; in [6], 30.2 µM. The TGI was found to be 19.2 µM in assay [7]; 39.3 µM in assay [8]; 8.51 µM in assay [9]; 15.4 µM in [10]; 47.7 µM in assay [11].

On to `FC(F)(F)c1ccc2c(c1)nc(Cc1ccccc1)n2C[C@@H]1CCCN2CCCCC12` (stereo not given in full), for which the TGI in [1] is 28.6 µM; in [2], 29.3 µM; in [3], 27.2 µM; in [4] it was 26.2 µM; in assay [5], 28 µM; in [6], 31.7 µM. The TGI in assay [7] is 29.7 µM; in assay [8], 30.6 µM; in [9], more than 100 µM; in [10] it was more than 65.7 µM; in assay [11], 30.4 µM.

Turning to `COC(=O)c1ccc2n1C1CC3CC(CC2C3)C1`, the TGI in assay [1], in assay [2], in assay [3], in [4], in assay [5] and in assay [6] was more than 100 µM each time. Besides, the TGI in assay [7], in [8], in [9], in [10] and in [11] was more than 100 µM in each case.

With `Oc1cc(Cl)cc2cc(Br)cnc12`, the TGI is more than 100 µM in [1]; more than 100 µM in assay [2]; more than 100 µM in [3]; more than 100 µM in assay [4]; 7.9 µM in assay [5]; more than 100 µM in assay [6]. In addition, the TGI was more than 26.9 µM in assay [7], more than 20.1 µM in [9], more than 100 µM in assay [10] and more than 59.6 µM in [11].

As for `COC(=O)NCCc1[nH]nc2c1C(=O)C=C(OC)C2=O`, the TGI is 36.2 µM in [1]; more than 100 µM in assay [2]; 37.7 µM in assay [3]; 33.3 µM in [4]; 32 µM in assay [5]; 37.8 µM in [6]. In addition, the TGI is 42.8 µM in assay [7], more than 100 µM in assay [8], 36.6 µM in assay [9] and 43.9 µM in assay [10].

Regarding `CC1=C/C(=N/N2C(=O)/C(=C/c3ccc(Cl)cc3)N=C2c2ccccc2)CC(C)(C)C1`, the TGI is more than 100 µM in assay [1]; more than 100 µM in assay [3]; more than 100 µM in assay [4]; more than 100 µM in assay [6]; more than 100 µM in assay [7]; 96 µM in [8]. Also, the TGI in assay [9], in [10] and in assay [11] was more than 100 µM throughout.

For `O=C(O)Cc1ccc(N2N=C(c3ccccc3)CC2=O)cc1`, the TGI in [2], in assay [4], in assay [5], in assay [6], in assay [7] and in assay [8] was more than 100 µM throughout. The TGI in assay [9], in assay [10] and in assay [11] was more than 100 µM in each case.

With `C[n+]1c2ccccc2c(CNC(CCC(N)=O)C(=O)O)c2ccccc21` (stereo not given), the TGI is 3.22 µM in assay [1]; 11.4 µM in [2]; 6.96 µM in [3]; 10.5 µM in [4]; 6.78 µM in assay [5]; 18 µM in assay [6]. Further, the TGI was determined as 7.55 µM in assay [7], 12 µM in [8], 3.71 µM in assay [9] and 1.95 µM in [10].

With `Cn1c(-c2csc(-c3ccc(Cl)cc3)n2)n[nH]c1=S`, the TGI in assay [1] is 32.2 µM; in assay [3], 27.1 µM; in assay [4] it was more than 100 µM; in assay [5] it was 34.9 µM; in assay [6], more than 100 µM; in assay [7], 47.2 µM. Also, the TGI in [9], in assay [10] and in assay [11] was more than 100 µM throughout.

The record behind these values is PubChem BioAssay (NCI).
